Data set [1] addresses T1, AHR (Homo sapiens, UniProt P35869).
T1 construct: endogenous in cells; host or cells: HepG2 (human), transfected with a DRE-luciferase reporter only
T1 sequence (P35869 11-848): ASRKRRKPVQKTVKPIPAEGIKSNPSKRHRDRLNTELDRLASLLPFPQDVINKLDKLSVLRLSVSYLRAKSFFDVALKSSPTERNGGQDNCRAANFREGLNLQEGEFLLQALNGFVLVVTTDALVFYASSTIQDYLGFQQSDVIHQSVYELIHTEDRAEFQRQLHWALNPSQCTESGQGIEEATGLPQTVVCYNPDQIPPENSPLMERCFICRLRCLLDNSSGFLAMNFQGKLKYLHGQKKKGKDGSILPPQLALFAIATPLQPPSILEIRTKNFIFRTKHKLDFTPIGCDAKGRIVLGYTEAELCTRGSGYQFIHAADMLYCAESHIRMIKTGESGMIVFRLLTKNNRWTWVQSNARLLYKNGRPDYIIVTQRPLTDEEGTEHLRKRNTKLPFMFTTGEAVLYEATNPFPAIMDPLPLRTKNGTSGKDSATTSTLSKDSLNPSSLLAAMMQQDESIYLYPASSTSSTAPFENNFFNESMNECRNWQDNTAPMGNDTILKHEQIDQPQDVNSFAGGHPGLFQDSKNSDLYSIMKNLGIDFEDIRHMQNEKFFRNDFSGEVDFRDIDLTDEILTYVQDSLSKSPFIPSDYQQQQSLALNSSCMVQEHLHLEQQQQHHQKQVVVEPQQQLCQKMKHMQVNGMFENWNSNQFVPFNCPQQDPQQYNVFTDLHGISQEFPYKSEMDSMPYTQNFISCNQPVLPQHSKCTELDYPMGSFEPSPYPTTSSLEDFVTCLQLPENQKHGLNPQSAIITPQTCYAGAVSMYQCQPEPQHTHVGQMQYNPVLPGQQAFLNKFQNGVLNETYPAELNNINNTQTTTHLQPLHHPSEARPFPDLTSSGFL
Put plainly: DRE-Luciferase Reporter Assay, HepG2 (agonist). Type of data set: cell-based. The settings on record: read-out: DRE-Luc HepG2 - Agonist: Average EC50. The method in brief: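 Cells carrying a stably or transiently transfected DRE-luciferase reporter, plated overnight at 37 C, then given agonist for 6, 16 or 24 h before lysis and luciferase read-out. Signal scaled between no ligand (minimum) and activating ligand alone, e.g. TCDD (maximum); EC50 = concentration giving half-maximal luciferase activity.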
In general terms: Reporter assays use an easily measured gene product as a stand-in for the process of interest.

The subject of data set [2] is DSS model of Inflammatory Bowel Disease (IBD). Type of data set: in vivo, C57Bl/6 mice. The protocol: On study day −1, C57Bl/6 mice are weighed and randomized into treatment groups based on body weight. On study day 0, treatment groups are given 2.5% DSS in drinking water and treatment is initiated on the same day, with either vehicle or AHR agonist compound(s). On study day 7, DSS drinking water is replaced with normal drinking water for the remainder of the study. Body weight is measured daily during the entire study. On study day 10, animals are anesthetized with Isoflurane and bled to exsanguination followed by cervical dislocation. The entire colon is removed and measured for length, weight, and weight per length. Overall efficacy of test AR agonist compounds is based on body weight, colon length, and colon histopathology. Histopathology data is assessed for appropriate parameters, as determined by a pathologist and the parameters for these DSS studies can include inflammation, erosion, gland loss, edema, hyperplasia, neutrophil count, mucosal thickening, lymphoid aggregate count and lymphoid aggregate size. The different parameter scores can be added for a summed score for the study histopathology.

Data set [3] has as its target T2, AHR (Mus musculus, UniProt P30561).
T2 sequence (P30561 1-848 F348L/P471L): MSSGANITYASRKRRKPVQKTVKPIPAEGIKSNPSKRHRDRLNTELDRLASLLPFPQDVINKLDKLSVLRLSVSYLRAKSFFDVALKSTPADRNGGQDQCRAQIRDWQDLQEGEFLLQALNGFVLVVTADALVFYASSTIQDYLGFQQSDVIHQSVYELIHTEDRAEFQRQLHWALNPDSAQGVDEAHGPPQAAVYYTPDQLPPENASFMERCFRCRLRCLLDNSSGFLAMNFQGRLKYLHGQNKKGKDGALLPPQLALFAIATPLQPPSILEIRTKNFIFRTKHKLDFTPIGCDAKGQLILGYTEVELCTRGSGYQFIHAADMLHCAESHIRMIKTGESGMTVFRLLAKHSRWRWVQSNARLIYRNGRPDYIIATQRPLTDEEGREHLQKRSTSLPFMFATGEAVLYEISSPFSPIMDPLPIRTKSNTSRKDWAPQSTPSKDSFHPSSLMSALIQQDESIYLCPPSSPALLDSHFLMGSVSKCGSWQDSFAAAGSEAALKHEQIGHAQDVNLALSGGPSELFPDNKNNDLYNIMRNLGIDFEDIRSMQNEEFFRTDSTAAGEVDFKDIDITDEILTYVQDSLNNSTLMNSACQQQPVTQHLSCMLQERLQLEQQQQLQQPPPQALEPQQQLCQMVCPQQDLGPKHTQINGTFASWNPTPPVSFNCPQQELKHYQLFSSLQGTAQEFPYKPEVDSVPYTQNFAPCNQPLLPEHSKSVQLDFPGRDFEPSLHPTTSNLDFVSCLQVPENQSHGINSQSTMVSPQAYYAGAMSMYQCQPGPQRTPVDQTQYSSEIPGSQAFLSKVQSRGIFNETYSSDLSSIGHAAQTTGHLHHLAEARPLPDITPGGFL
Put plainly: P450 CYP1A1 Luciferase Assay, Hepa1.6 (agonist). In kind it is cell-based, murine. Conditions: Hepa1.6, Table 2. As to the method: P450 CYP1A1 Luciferase Assay
AHR binds to Dioxin Responsive Elements (DRE) upstream of genes that it activates. One measure of AHR activity is P450 CYP1A1 protein levels determined by measuring CYP1A1 enzyme activity using a luminogenic CYP1A1 luciferin-based substrate. Luciferase activity will reflect CYP1A1 activity resulting from activation of AHR in the cells.
Murine Hepa1-6 or Hepa-1c1c7 or other murine cell line, human HepG2 or other human cell line are plated in media (96-well, 384-well or other plates) and incubated overnight at 37 C in a CO2 incubator.
(§1) The next day, an AHR agonist compound is added. Cells are incubated for 6, 16 or 24 hours or another time point and then lysed and incubated with a CYP1A1 luciferase-based substrate (e.g. Luciferin-CEE) for 3, 6, or 12 hours of another time point. Determination of luciferase activity as a read-out of CYP1A1 enzyme activity can be measured with a commercial kit such as the Promega P450 Glo CYP1A1 detection reagent or any kit or reagents that provide for measuring luciferase activity. The level of luciferase with only activating ligand (e.g. such as TCDD, kynurenine, ITE (2-(1H-indole-3-ylcarbonyl)-4-thiazolecarboxylic methyl ester), VAF347, BNF (beta-naphthoflavone), ICZ (6-formylindolo(3,2-b) carbazole or other AHR ligands) added is the maximum signal while the luciferase with no ligand is the minimum signal. EC50s can be determined as the concentration which activates half of the maximum luciferase activity.

The subject of another data set is Cyp1a1 gene expression. Also on record: species or system C57BL/6N mice. The settings on record: mouse, in vivo. The protocol:
C57BL/6N mice are weighed and randomized into treatment groups with group size of 3-5 mice. On study Day 1, treatment is initiated and necropsies follow on day 1 at 4 and 12 hours post-dose and on Day 2, 24 hours post-dose. On Day 1, mice are dosed orally with one dose of the AHR agonist compound(s) that are in a suspension and mixed well before dosing. At the designated time, animals are euthanized and plasma and tissue taken for compound levels (PK) and compound effect (PD) on gene expression. Liver samples and proximal colon are weighed and then frozen for subsequent RNA extraction and RT-PCR analysis. AHR activation is determined by measuring Cyp1a1 gene expression relative to a housekeeping gene, such as GAPDH or HPRT. Cyp1a1 expression levels in the liver are compared to Cyp1a1 levels in the colon to determine a colon:liver ratio to determine the level of GI preferred AHR activation.

In data set [4] the target is T2, AHR. Put plainly: DRE-Luciferase Reporter Assay, Hepa1.6 (agonist). In kind it is cell-based, murine. The settings on record: Hepa1.6, Table 3; read-out: DRE-Luc Hepa1.6 - Agonist: Average EC50. As to the method: DRE-Luciferase Reporter Assay
AHR binds to Dioxin Responsive Elements (DRE) upstream of genes that it activates. One measure of AHR activity is activation of a reporter gene, such as luciferase, downstream of one or multiple DRE elements. Luciferase activity reflects activation and inhibition of AHR in the cells expressing this reporter.
Murine Hepa1-6 or Hepa-1c1c7 or other murine cell line with a DRE-luciferase reporter either stably or transiently transfected are plated in media in plates (96-well, 384-well or other plates) and incubated overnight at 37 C in a CO2 incubator. Likewise, human HepG2 or other human cell line with a DRE-luciferase reporter either stably or transiently transfected are plated in media in plates (96-well, 384-well or other plates) and incubated overnight at 37 C in a CO2 incubator.
as §1, with “lysed” for “lysed and incubated with a CYP1A1 luciferase-based substrate (e.g. Luciferin-CEE)”, “determination” for “3, 6, or 12 hours of another time point. Determination”, “the AHR activation. Luciferase” for “CYP1A1 enzyme activity”, “Luciferase kit” for “P450 Glo CYP1A1 detection reagent”, “provide the luciferin substrate” for “provide”

pEC50: −log10 of the molar value. Read-outs that look alike come from different tables or passages of the source.

As a reminder, the pEC50 is the EC50 on a negative log10 scale, so that one unit is a factor of ten. Consider `FC(F)(F)c1cccc(Nc2nc(-c3cccc(/N=N/c4cccc(-c5csc(Nc6cccc(C(F)(F)F)c6)n5)c4)c3)cs2)c1` [I-41], for which the pEC50 was 6.00 to 7.00 on AHR [1] (HepG2, Table 2) and less than 6.00 on AHR [3]. Further, the “histology evaluation of inflammation” value in data set [2] (DSS model, compared with ITE administration, FIG. 8) was “comparable activity”.
Regarding `O=C(O)c1cccc(/N=N/c2cccc(-c3csc(Nc4cccc(C(F)(F)F)c4)n3)c2)c1` [I-161], the negative logarithm of the EC50 (pEC50) on AHR [1] (HepG2, Table 3) was 6.00 to 7.00. Moreover, the “inflammation and erosion (histopathology)” value in data set [2] (DSS model, relative to vehicle control, FIG. 6, FIG. 19) is “reduced inflammation and erosion”. In data set [2] (DSS model, FIG. 18B), the “activity at all doses compared with CSA” value is listed as “comparable or better than CSA” and the “histopathology data compared with CSA” value is recorded as “activity comparable to CSA”. The “inflammation, edema, hyperplasia, and lymphoid aggregate size” value in data set [2] (DSS model, FIG. 19) is reported as “reduction”. In data set [2] (FIGS. 18A-18B), the “efficacy in DSS IBD mouse model” value was “demonstrates efficacy”. The “Cyp1a1 induction in the colon” value with Cyp1a1 gene expression (C57BL/6N, po) is “Cyp1a1 induction in the colon at low doses”. In the data set with Cyp1a1 gene expression, the “Cyp1a1 induction in the colon” value was “comparable”, the “Cyp1a1 induction in the liver” value is given as “significantly less induction” and the “colon:liver ratio of Cyp1a1 expression” value was “colon-preferred activity”. Besides, the pEC50 on AHR [4] was less than 6.00.
Take `COC(=O)/C(C)=N/Nc1cccc(-c2csc(Nc3cccc(C(F)(F)F)c3)n2)c1` [I-167]: the negative logarithm of the EC50 (pEC50) at AHR [1] (HepG2, Table 3) is 6.00 to 7.00; at AHR [4], 6.00 to 7.00.
With `Nc1ccnc(-c2csc(Nc3cccc(C(F)(F)F)c3)n2)c1` [I-168], the pEC50 on AHR [1] (HepG2, Table 3) is less than 6.00; on AHR [4], less than 6.00.
As for `Fc1ccc(/N=N/c2ccc(F)c(-c3csc(Nc4cccc(C(F)(F)F)c4)n3)c2)cc1-c1csc(Nc2cccc(C(F)(F)F)c2)n1` [I-169], the pEC50 was 6.00 to 7.00 at AHR [1] (HepG2, Table 3) and 6.00 to 7.00 at AHR [4].
Turning to `O=C(Nc1cncc(-c2csc(Nc3cccc(C(F)(F)F)c3)n2)c1)Nc1cncc(-c2csc(Nc3cccc(C(F)(F)F)c3)n2)c1` [I-170], the pEC50 at AHR [1] (HepG2, Table 3) is 7.00 to 8.00; at AHR [4], 7.00 to 8.00.
As to `Fc1ccc(-c2csc(Nc3cccc(C(F)(F)F)c3)n2)cc1/N=N/c1cc(-c2csc(Nc3cccc(C(F)(F)F)c3)n2)ccc1F` [I-171], the pEC50 is less than 6.00 on AHR [1] (HepG2, Table 3) and less than 6.00 at AHR [4].
For `Nc1ccccc1-c1csc(Nc2ccccc2C(F)(F)F)n1` [I-172], the negative-log EC50 (pEC50) at AHR [1] (HepG2, Table 3) is 7.00 to 8.00; on AHR [4] it was less than 6.00.
In the same order, the values of `O=C(O)c1cccc(/N=N/c2cc(-c3csc(Nc4cccc(C(F)(F)F)c4)n3)ccc2F)c1` [I-173] are 6.00 to 7.00 and 6.00 to 7.00.
In the same order, the values of `O=C(O)c1cccc(/N=N/c2cc(-c3csc(Nc4cccc(C(F)(F)F)c4)n3)c(F)cc2F)c1` [I-174] are 6.00 to 7.00 and 6.00 to 7.00.
In the same order, the values of `FC(F)(F)c1cccc(Nc2nc(-c3cncc(NNc4cncc(-c5csc(Nc6cccc(C(F)(F)F)c6)n5)c4)c3)cs2)c1` [I-175] are 6.00 to 7.00 and 6.00 to 7.00.
Turning to `O=C(O)c1cc(/N=N/c2cccc(-c3csc(Nc4cccc(C(F)(F)F)c4)n3)c2)cc(C(=O)O)c1` [I-176], the pEC50 at AHR [1] (HepG2, Table 3) is less than 6.00; at AHR [4], less than 6.00.
For `Nc1ccccc1-c1csc(Nc2cccc(C(F)(F)F)c2)n1` [I-177], the negative logarithm of the EC50 (pEC50) at AHR [1] (HepG2, Table 3) was 7.00 to 8.00; on AHR [4], greater than 8.00.
In the same order, the values of `O=C(O)c1cc(/N=N/c2cc(-c3csc(Nc4cccc(C(F)(F)F)c4)n3)ccc2F)ccc1O` [I-178] are less than 6.00 and less than 6.00.
In the same order, the values of `O=C(O)c1cc(/N=N/c2ccc(F)c(-c3csc(Nc4cccc(C(F)(F)F)c4)n3)c2)ccc1O` [I-179] are 6.00 to 7.00 and less than 6.00.
